Test results as given in EP3505512B1, “QUATERNARY NICOTINAMIDE DERVIATIVES AS PRECURSORS FOR RELEASE OF MNA” (UNIWERSYTET JAGIELLONSKI, priority 2017, dated 2019).

Tests used:
[1] = hydrolytic stability in solution: incubation in PBS buffer, LC-MS/MS determination of parent compound, MNAF and MNA; assay type: physicochemical; conditions: 37°C, incubation 120 min
Method: The invention also concerns the method of releasing N1-methylnicotinamide (MNA), which is characterized by the following steps: pyridine salts derivatives, as defined above, are incubated in a shaking water bath at 37°C for 120 minutes, then samples are taken 1, 5, 15, 30, 60, 90 and 120 minutes after the start of incubation, by taking 50 µL of a sample to which 500 µL of acetonitrile cooled to -20°C was added to interrupt the hydrolysis reaction, then samples were cooled for 20 minutes at 4°C for protein precipitation, and then centrifuged under the following conditions: 4°C, 15,000 x rpm, 15 min, and the supernatant was transferred to separate chromatographic tubes and 5 µL was applied to the chromatographic column. Preferably, when MNA release is studied in PBS buffer - testing hydrolytic stability in solution and/or in rat plasma - additionally testing plasma esterase-dependent hydrolysis.
For that purpose, the studied compounds were incubated: (1) in PBS buffer - testing hydrolytic stability in solution; (2) in rat plasma - testing additionally esterase dependent hydrolysis. Incubation was carried out in a shaking water bath at 37°C. The studied compounds were added to the prepared biological matrix and incubated for 120 min. Samples were collected 1, 5, 15, 30, 60, 90 and 120 min. after the beginning of incubation, by taking 50 µL of a sample to which 500 µL of acetonitrile cooled to -20°C was added to stop the hydrolysis reaction. The samples were cooled for 20 minutes at 4°C in order to precipitate proteins and then centrifuged under the following conditions: 4°C, 15,000 x rpm, 15 min. The supernatant was transferred to separate chromatographic tubes and 5 µL was injected onto chromatographic column.
The analytical system used for determination of MNA and MNAF concentrations consisted of the UltiMate 3000 liquid chromatograph (Dionex, Thermo Scientific) and the Quantum Ultra TSQ mass spectrometer (Thermo Scientific). For chromatographic separation the Aquasil C18 (4.6 x 150 mm, 5 µm, Thermo Scientific) analytical column was used with isocratic mobile phase, a mixture of 0.1% formic acid in acetonitrile and 5mM ammonium formate (80: 20, v/v)) elution ,at the flow rate of 0,8 mL/min. The detection was performed in the selected reaction monitoring (SRM) mode in positive ionization, monitoring the following ion transitions: m/z 137 → 94 (CE=19V) for MNA, m/z 167 → 137 (CE10) for MNAF, m/z 140 → 97 (CE=19V) for MNA-d3 used as internal standard. The parameters of the ion source were as follows: gas pressure 30 psi (sheath gas) and 10 psi (auxiliary gas), ion spray voltage 4500V, H-ESI ison sourse vaporizer temperature 300°C, capillary temperature 300°C, pressure in the collision chamber 1.5 mTorr (argon).

[2] = esterase dependent hydrolysis: incubation in fresh rat plasma, LC-MS/MS determination of parent compound, MNAF and MNA; conditions: for hydrolysis of parent compound during plasma incubation: fresh rat plasma, 37°C, incubation 120 min; for release of intermediate compound MNAF / rate of hydrolysis (property depending on structure): group property, matrix not given

| Substance | stability in PBS buffer [1] | changes in concentrations of parent compound during incubation in PBS solution [1] | hydrolysis of parent compound during plasma incubation [2] | release of intermediate compound MNAF / rate of hydrolysis (property depending on structure) [2] |
| --- | --- | --- | --- | --- |
| 3-[(adamanthan-1-carbonyl oxymethyl)carbamoyl]-1-methylpyridinium iodide [C-2808] | high stability | No changes in concentrations | slow and slight hydrolysis | hydrolyse very slowly |
| 3-(benzoyloxymethylcarbamoyl)-1-methylpyridinium iodide [C-2648] | – | – | – | quick release of an intermediate compound MNAF |
| iodide [(1-methylpyridine-1-ium-3-carbonyl)amino] methyl-1-methylcyclohexanecarboxylate [C-2959] | – | – | – | quick release of an intermediate compound MNAF |
| 3-(methoxymethylcarbamoyl)-1-methylpyridinium iodide [C-2823] | high stability | No changes in concentrations | slow and slight hydrolysis | hydrolyse very slowly |
| 3-({[(3,4,5-trimethoxybenzoyl)oxy]methyl}carbamoyl)-1 methylpyridinium iodide [C-2942] | – | – | – | quick release of an intermediate compound MNAF |
| 3-(isobutanoyloxymethylcarbamoyl)-1-methylpyridinium iodide [C-2649] | – | – | – | quick release of an intermediate compound MNAF |
| 3-[(2,2-dimethylpropionyl oxymethyl)carbamoyl]-1-methylpyridinium iodide [C-2647] | – | – | – | quick release of an intermediate compound MNAF |
| 3-(Acetoxymethylcarbamoyl)-1-methylpyridinium iodide [C-2578] | – | – | – | quick release of an intermediate compound MNAF |
